{
  "source": "patent US20240199651A1",
  "about": "“ANTIBACTERIAL COMPOUNDS” (JANSSEN SCIENCES IRELAND UNLIMITED COMPANY, priority 2021, published 2024)",
  "assay": "Mitochondrial toxicity (Glu/Gal) assay",
  "assay_type": "cell-based",
  "conditions": "for Score: mitotoxicity score, Glu/Gal assay; for Δ IC50, glu/IC50, gal: ratio IC50 glu / IC50 gal",
  "excerpt": "The compounds of the invention/examples may have advantages associated with in vitro potency, kill kinetics (i.e. bactericidal effect) in vitro, PK properties, food effect, safety/toxicity (including liver toxicity, coagulation, 5-LO oxygenase), metabolic stability, Ames II negativity, MNT negativity, aqueous based solubility (and ability to formulate) and/or cardiovascular effect e.g. on animals (e.g. anesthetized guinea pig). Data that is generated/calculated may be obtained using standard methods/assays, for instance that are available in the literature or which may be performed by a supplier (e.g. Microsomal Stability Assay—Cyprotex, Mitochondrial toxicity (Glu/Gal) assay—Cyprotex, as well as literature CYP cocktail inhibition assays). GSH can be measured (reactive metabolites, glucuronidation) to observe if a dihydrodiol is observed by LCMS (fragmentation ions), which would correspond to a dihydroxylation on the core heterocycle.",
  "key": {"[1]": {"conditions": "galactose medium (Glu/Gal mitotoxicity assay), read-out: IC50, gal"}, "[2]": {"conditions": "glucose medium (Glu/Gal mitotoxicity assay), read-out: IC50, glu"}},
  "note": "Where two headings read alike, the source gives them in different places.",
  "data": [
    {"smiles": "CCc1nc2ccc(Cl)cn2c1C(=O)NCc1ccc(-c2nc3n(n2)CCN(S(=O)(=O)C(F)(F)F)C3)c(F)c1", "note": "[Compound 3]", "values": [
      {"measurement": "Score", "value": "[x]1"},
      {"measurement": "Δ IC50, glu/IC50, gal", "value": 0.91},
      {"measurement": "IC50", "setting": "read-out: IC50, gal", "value": 73.1, "unit": "µM"},
      {"measurement": "IC50", "setting": "read-out: IC50, glu", "value": 66.2, "unit": "µM"}
    ]},
    {"smiles": "O=C(NCc1ccc(-c2nc3n(n2)CCN(S(=O)(=O)C(F)(F)F)C3)c(F)c1)c1c(C(F)F)nc2ccc(Cl)cn12", "note": "[Compound 5]", "values": [
      {"measurement": "Score", "value": "[x]1"},
      {"measurement": "Δ IC50, glu/IC50, gal", "value": 0.96},
      {"measurement": "IC50", "setting": "read-out: IC50, gal", "value": 117, "unit": "µM"},
      {"measurement": "IC50", "setting": "read-out: IC50, glu", "value": 112, "unit": "µM"}
    ]},
    {"smiles": "CCc1nc2cc(C)c(Cl)cn2c1C(=O)NCc1ccc(-c2nc3n(n2)CCN(S(=O)(=O)C(F)(F)F)C3)c(F)c1", "note": "[Compound 9]", "values": [
      {"measurement": "Score", "value": "[x]1"},
      {"measurement": "Δ IC50, glu/IC50, gal", "value": 1.15},
      {"measurement": "IC50", "setting": "read-out: IC50, gal", "value": 19.9, "unit": "µM"},
      {"measurement": "IC50", "setting": "read-out: IC50, glu", "value": 22.9, "unit": "µM"}
    ]},
    {"smiles": "CCc1nc2c(Cl)c(OC)ccn2c1C(=O)NCc1ccc(-c2nc3n(n2)CCN(S(=O)(=O)C(F)(F)F)C3)c(F)c1", "note": "[Compound 11]", "values": [
      {"measurement": "Δ IC50, glu/IC50, gal", "value": ">2.93"},
      {"measurement": "IC50", "setting": "read-out: IC50, gal", "value": 68.2, "unit": "µM"},
      {"measurement": "IC50", "setting": "read-out: IC50, glu", "value": "> 200", "unit": "µM"}
    ]},
    {"smiles": "CCc1nc2cc(OC)c(Cl)cn2c1C(=O)NCc1cnc(-c2nc3n(n2)CCN(S(=O)(=O)C(F)(F)F)C3)c(F)c1", "note": "[Compound 16]", "values": [
      {"measurement": "IC50", "setting": "[1]", "value": "> 200", "unit": "µM"},
      {"measurement": "IC50", "setting": "[2]", "value": "> 200", "unit": "µM"}
    ]},
    {"smiles": "CCc1nc2ncc(F)cn2c1C(=O)NCc1ccc(-c2nc3n(n2)CCN(S(=O)(=O)C(F)(F)F)C3)c(F)c1", "note": "[Compound 17]", "values": [
      {"measurement": "IC50", "setting": "[1]", "value": "> 200", "unit": "µM"},
      {"measurement": "IC50", "setting": "[2]", "value": "> 200", "unit": "µM"}
    ]},
    {"smiles": "CCc1nc2cc(C)c(Cl)cn2c1C(=O)NCc1cnc(-c2nc3n(n2)CCN(S(=O)(=O)C(F)(F)F)C3)c(F)c1", "note": "[Compound 20]", "values": [
      {"measurement": "Score", "value": "[x]1"},
      {"measurement": "Δ IC50, glu/IC50, gal", "value": ">1.3"},
      {"measurement": "IC50", "setting": "read-out: IC50, gal", "value": 154, "unit": "µM"},
      {"measurement": "IC50", "setting": "read-out: IC50, glu", "value": "> 200", "unit": "µM"}
    ]},
    {"smiles": "CCc1nc2c(F)cc(Cl)cn2c1C(=O)NCc1ccc(-c2nc3n(n2)CCN(S(=O)(=O)C(F)(F)F)C3)cc1", "note": "[Compound 21]", "values": [
      {"measurement": "Score", "value": "[x]1"},
      {"measurement": "Δ IC50, glu/IC50, gal", "value": 1.65},
      {"measurement": "IC50", "setting": "read-out: IC50, gal", "value": 59.4, "unit": "µM"},
      {"measurement": "IC50", "setting": "read-out: IC50, glu", "value": 97.9, "unit": "µM"}
    ]},
    {"smiles": "CCc1nc2ccc(F)cn2c1C(=O)NCc1ccc(-c2nc3n(n2)CCN(S(=O)(=O)C(F)(F)F)C3)cc1", "note": "[Compound 22]", "values": [
      {"measurement": "Score", "value": "[x]1"},
      {"measurement": "Δ IC50, glu/IC50, gal", "value": 1.51},
      {"measurement": "IC50", "setting": "read-out: IC50, gal", "value": 62.6, "unit": "µM"},
      {"measurement": "IC50", "setting": "read-out: IC50, glu", "value": 94.7, "unit": "µM"}
    ]},
    {"smiles": "CCc1nc2cc(C)c(C)cn2c1C(=O)NCc1ccc(-c2nc3n(n2)CCN(S(=O)(=O)C(F)(F)F)C3)cc1", "note": "[Compound 23]", "values": [
      {"measurement": "IC50", "setting": "[1]", "value": "> 200", "unit": "µM"},
      {"measurement": "IC50", "setting": "[2]", "value": "> 200", "unit": "µM"}
    ]},
    {"smiles": "CCc1nc2cc(Cl)c(C)cn2c1C(=O)NCc1ccc(-c2nc3n(n2)CCN(S(=O)(=O)C(F)(F)F)C3)cc1", "note": "[Compound 25]", "values": [
      {"measurement": "Δ IC50, glu/IC50, gal", "value": ">2.26"},
      {"measurement": "IC50", "setting": "read-out: IC50, gal", "value": 22.1, "unit": "µM"},
      {"measurement": "IC50", "setting": "read-out: IC50, glu", "value": "> 50", "unit": "µM"}
    ]},
    {"smiles": "CCc1nc2ncc(C(C)C)cn2c1C(=O)NCc1ccc(-c2nc3n(n2)CCN(S(=O)(=O)C(F)(F)F)C3)cc1", "note": "[Compound 26]", "values": [
      {"measurement": "IC50", "setting": "[1]", "value": "> 200", "unit": "µM"},
      {"measurement": "IC50", "setting": "[2]", "value": "> 200", "unit": "µM"}
    ]},
    {"smiles": "CCc1nc2ccc(C3CC3)cn2c1C(=O)NCc1ccc(-c2nc3n(n2)CCN(S(=O)(=O)C(F)(F)F)C3)cc1", "note": "[Compound 27]", "values": [
      {"measurement": "Δ IC50, glu/IC50, gal", "value": 2.34},
      {"measurement": "IC50", "setting": "read-out: IC50, gal", "value": 44.5, "unit": "µM"},
      {"measurement": "IC50", "setting": "read-out: IC50, glu", "value": 104, "unit": "µM"}
    ]},
    {"smiles": "CCc1nc2ncc(C3CC3)cn2c1C(=O)NCc1ccc(-c2nc3n(n2)CCN(S(=O)(=O)C(F)(F)F)C3)cc1", "note": "[Compound 28]", "values": [
      {"measurement": "IC50", "setting": "read-out: IC50, gal", "value": "> 200", "unit": "µM"},
      {"measurement": "IC50", "setting": "read-out: IC50, glu", "value": "> 200", "unit": "µM"}
    ]},
    {"smiles": "Cc1cnc2nc(C)c(C(=O)NCc3ccc(-c4nc5n(n4)CCN(S(=O)(=O)C(F)(F)F)C5)cc3)n2c1", "note": "[Compound 29]", "values": [
      {"measurement": "IC50", "setting": "[1]", "value": "> 200", "unit": "µM"},
      {"measurement": "IC50", "setting": "[2]", "value": "> 200", "unit": "µM"}
    ]},
    {"smiles": "Cc1ccc2nc(C3CC3)c(C(=O)NCc3ccc(-c4nc5n(n4)CCN(S(=O)(=O)C(F)(F)F)C5)cc3)n2c1", "note": "[Compound 30]", "values": [
      {"measurement": "Score", "value": "[x]1"},
      {"measurement": "Δ IC50, glu/IC50, gal", "value": 1.35},
      {"measurement": "IC50", "setting": "read-out: IC50, gal", "value": 71.1, "unit": "µM"},
      {"measurement": "IC50", "setting": "read-out: IC50, glu", "value": 95.7, "unit": "µM"}
    ]},
    {"smiles": "CCc1nc2n(c1C(=O)NCc1ccc(-c3nc4n(n3)CCN(S(=O)(=O)C(F)(F)F)C4)cc1)CCCC2", "note": "[Compound 31]", "values": [
      {"measurement": "IC50", "setting": "[1]", "value": "> 200", "unit": "µM"},
      {"measurement": "IC50", "setting": "[2]", "value": "> 200", "unit": "µM"}
    ]},
    {"smiles": "Cc1cn2c(C(=O)NCc3ccc(-c4nc5n(n4)CCN(S(=O)(=O)C(F)(F)F)C5)cc3)c(C)nc2s1", "note": "[Compound 32]", "values": [
      {"measurement": "Score", "value": "[x]3"},
      {"measurement": "Δ IC50, glu/IC50, gal", "value": ">12.72"},
      {"measurement": "IC50", "setting": "read-out: IC50, gal", "value": 15.7, "unit": "µM"},
      {"measurement": "IC50", "setting": "read-out: IC50, glu", "value": "> 200", "unit": "µM"}
    ]}
  ]
}
